Experimental data: ChEMBL document CHEMBL1126523, “Synthesis and antiflammatory activity of some 3-heterocycle-1,2-benzisothiazoles” (1993)

How the values were obtained:
Format in all cases: functional
Rattus norvegicus [1] = assay: Tested for % inhibition in carrageenan-induced rat paw adema after intraperitoneal administration of 100 mg/kg dose at 2 hours; conditions: ip
Rattus norvegicus [2] = assay: Tested for % inhibition in carrageenan-induced rat paw adema after peroral administration of 100 mg/kg dose at 3.5 hours; conditions: route oral
Rattus norvegicus [3] = assay: Tested for % inhibition in carrageenan-induced rat paw adema after peroral administration of 100 mg/kg dose at 2 hours; conditions: route oral
Rattus norvegicus [4] = assay: Tested for % inhibition in carrageenan-induced rat paw adema after intraperitoneal administration of 100 mg/kg dose at 3.5 hours; conditions: ip

SMILES	inhibition in vivo at 100 mg/kg (Rattus norvegicus [1])	inhibition in vivo at 100 mg/kg (Rattus norvegicus [2])	inhibition in vivo at 100 mg/kg (Rattus norvegicus [3])	inhibition in vivo at 100 mg/kg (Rattus norvegicus [4])
CC(C)Cc1ccc(C(C)C(=O)O)cc1 (stereo not drawn) [IBUPROFEN]	70%	65%	62%	74%
CNc1nnc(-c2nsc3ccccc23)o1	67%	10%	10%	60%
COc1ccc(Nc2nnc(-c3nsc4ccccc34)o2)cc1	59%	33%	28%	50%
c1ccc(Nc2nnc(-c3nsc4ccccc34)s2)cc1	62%	10%	8%	48%
Clc1ccc(Nc2nnc(-c3nsc4ccccc34)o2)cc1	48%	10%	14%	40%
c1ccc(-c2nnc(-c3nsc4ccccc34)o2)cc1	60%	32%	60%	48%
Cc1nnc(-c2nsc3ccccc23)o1	69%	21%	43%	42%
CCc1nnc(-c2nsc3ccccc23)s1	10%	12%	10%	10%
COc1ccc(-c2nnc(-c3nsc4ccccc34)o2)cc1	45%	29%	21%	33%
Clc1ccc(-c2nnc(-c3nsc4ccccc34)o2)cc1	50%	24%	13%	33%
CCc1nnc(-c2nsc3ccccc23)o1	10%	18%	10%	10%
c1ccc(Nc2nnc(-c3nsc4ccccc34)o2)cc1	67%	27%	56%	48%
CCNc1nnc(-c2nsc3ccccc23)s1	59%	25%	34%	50%
CCNc1nnc(-c2nsc3ccccc23)o1	65%	29%	53%	42%
Sc1nnc(-c2nsc3ccccc23)n1-c1ccccc1	81%	10%	10%	60%
c1ccc(-c2nnc(-c3nsc4ccccc34)s2)cc1	21%	22%	10%	10%
CCn1c(S)nnc1-c1nsc2ccccc12	64%	32%	57%	50%
